# Test results from patent publication US20050148521A1, “Anti-cancer combination and use thereof” (Yissum Research Development Company of the Hebrew University, priority 2002, published 2005).
# “Also recorded” adds a separate entry of the source.
# Assays:
# [1] = tested on: EMT6/CTX mouse breast cancer cell line; assay: EMT6/CTX subcutaneous tumor growth in mice (tumor volume); format: in vivo
# From the text: Breast cancer is a highly lethal disease. To test the efficacy of rofecoxib, benzyl benzoate, cyclophosphamide, and pamidronate alone and in combination, a mouse breast cancer cell line, EMT6, that was originally isolated from a spontaneous tumor in a BALB/c mouse was used (Twentyman P R and Watson J V, Br. J. Cancer 35: 120 (1977)). This line was further selected for a drug resistant variant, EMT6/CTX, that was used in this study (Teicher B A et al. Cancer Chemother. Pharmacol. 37: 601 (1996)). An EMT6/CTX cell suspension was freshly prepared in DMEM medium+10% FCS, following trypsinization of cell grown in tissue culture. Anesthesia is performed by injecting 0.08 ml per mouse of Ketamine 30 mg/ml+0.07% Chanazine in PBS.
# Rofecoxib (Vioxx, a Merck & Co. Inc. product), as an oral suspension. Diclofenac, water-soluble Vitamin K3 (menadione sodium bisulfite) and Benzyl benzoate, purchased from Sigma-Aldrich (St. Louise, […].), were formulated into solution in double-distilled water plus 2% Tween 20 (J.T. Baker, NJ). Cyclophosphamide, purchased from Bristol-Meyers Squibb (Princeton, N.J.), was formulated into solution in double-distilled water plus 2% Tween 20. Pamidronate (Pamidronic acid) was dissolved in 2M HEPES. The following doses were used for treatment in all three experiments: Rofecoxib 10 mg/kg, pamidronate 10 mg/kg, Diclofenac 30 or 60 mg/kg, menadione sodium bisulfite 20 or 50 mg/kg, cyclophosphamide (CTX) 50, 60 or 100 mg/kg and benzyl benzoate 80 or 550 mg/kg. Vehicle: 2% Tween 20 in double distilled water. The preparations were made in a concentration that will require an i.p. injection of 0.1 ml per 20 gr body weight to achieve the above doses.
# All treatments were started 5 days after cell inoculation. Treatment comprised an intraperitoneal injection of 0.1 ml per 20 gr body weight of the formulation. Mice were treated twice a week for a period of 3 weeks.
# Tumor dimensions were measured twice a week. Tumor volume was calculated according to conventional methods (volume=a^2×b×0.52 where a represents the tumor width and b is its length) and the data are represented as changes in tumor volume with time. Toxicity was evaluated by qualitative observation of the general appearance and behavior of the mice, by measuring their body weight during various intervals during the course of the treatments and by obtaining mortality data.
# cancer = settings: Tetef M. et al. J. Cancer Res. Clin. Oncol. 121: 103-6 (1995); cited from earlier work
# tumor-bearing mice = assay: Own studies with tumor-bearing mice, agent given by itself; format: in vivo
compound,measurement,setting,value
"O=C(OCc1ccccc1)c1ccccc1 [A, Benzyl benzoate]","tumor volume, comparison of regimen","[1]; Experiment 4, FIG. 4, (CTX 50+BC)x2 per week+1/6A x6 per week vs CTX 50+ABC twice a week, 4 weeks",superiority of spreading the dose of A throughout the week
"O=C(O)Cc1ccccc1Nc1c(Cl)cccc1Cl [D, Diclofenac]","tumor volume, comparison of NSAID","[1]; Experiment 6, FIG. 6, NSAID Wed. with or without B, CTX 100 Sun., A all week, 4 weeks","superiority of D (25 and 50 mg/kg) over C (5 and 10 mg/kg, respectively)"
"CC1=CC(=O)c2ccccc2C1=O [VK, 2-methyl-1,4-naphthalenedione]","tumor volume, effect of addition of Vitamin K3","[1]; Experiment 8, FIG. 8, VK 20 mg/kg 6 times a week or 50 mg/kg twice a week added to CTX60+D30+A, 4 weeks",improve the efficacy of the treatment; also recorded: lower doses throughout the week (every day) is preferable
same,activity as an anti-cancer agent,cancer,failed to show any activity
"O=P1(N(CCCl)CCCl)NCCCO1 (stereo not shown) [CTX 50, Cyclophosphamide]",effect on tumor growth,"[1]; Experiment 3, FIG. 3, i.p. twice a week for 4 weeks, start 3 days after inoculation",moderate effect on tumor growth
same,"tumor volume, comparison of regimen","[1]; Experiment 7, FIG. 7, CTX 100 Sun. or CTX20 all week, D50 1, 3 or 5 days apart, A all week, 4 weeks",preferred over equal small doses throughout the week
CS(=O)(=O)c1ccc(C2=C(c3ccccc3)C(=O)OC2)cc1 [Rofecoxib],anti-cancer effect,tumor-bearing mice,no significant anti-cancer effect
